Data: ChEMBL document CHEMBL3352247, “Synthesis and antimycobacterial evaluation of 5-alkylamino-N-phenylpyrazine-2-carboxamides” (Bioorg Med Chem, 2015)
Calls of active or inactive are those of the source. The rule behind the calls is not given here.

Key:
Trichosporon asahii = test: Antifungal activity against Trichosporon asahii 1188 after 24 to 48 hrs by two-fold dilution method; assay type: functional, organism-based
Candida tropicalis = test: Antifungal activity against Candida tropicalis 156 after 24 to 48 hrs by two-fold dilution method; assay type: functional, organism-based
Pichia kudriavzevii = test: Antifungal activity against Candida krusei E28 after 24 to 48 hrs by two-fold dilution method; assay type: functional, organism-based
Klebsiella pneumoniae [1] = test: Antibacterial activity against Klebsiella pneumoniae D 11750/08 clinical isolate after 24 to 48 hrs by broth microdilution method; assay type: functional, organism-based
[2] = Antimycobacterial activity against Mycobacterium avium subsp. avium Chester CNCTC My 80/72 in Middlebrook 7H9 broth after 5 days by AlamarBlue assay; assay type: functional; settings: Chester CNCTC My 80/72, 120 h
Mycobacterium kansasii = test: Antimycobacterial activity against Mycobacterium kansasii CNCTC My 235/80 in Middlebrook 7H9 broth after 5 days by AlamarBlue assay; assay type: functional; settings: CNCTC My 235/80, 120 h
Lichtheimia corymbifera = test: Antifungal activity against Absidia corymbifera 272 after 24 to 48 hrs by two-fold dilution method; assay type: functional, organism-based
[3] = system: Trichophyton mentagrophytes; test: Antifungal activity against Trichophyton mentagrophytes 445 after 72 to 120 hrs by two-fold dilution method; assay type: functional, organism-based
Staphylococcus aureus [4] = test: Antibacterial activity against methicillin-resistant Staphylococcus aureus H 5996/08 clinical isolate after 24 to 48 hrs by broth microdilution method; assay type: functional, organism-based
Nakaseomyces glabratus = test: Antifungal activity against Candida glabrata 20/I after 24 to 48 hrs by two-fold dilution method; assay type: functional, organism-based
Pseudomonas aeruginosa = test: Antibacterial activity against Pseudomonas aeruginosa CCM 1961 after 24 to 48 hrs by broth microdilution method; assay type: functional, organism-based
Klebsiella pneumoniae [5] = test: Antibacterial activity against ESBL-positive Klebsiella pneumoniae J 14368/08 clinical isolate after 24 to 48 hrs by broth microdilution method; assay type: functional, organism-based
Staphylococcus aureus [6] = test: Antibacterial activity against Staphylococcus aureus CCM 4516/08 after 24 to 48 hrs by broth microdilution method; assay type: functional, organism-based
Aspergillus fumigatus = test: Antifungal activity against Aspergillus fumigatus 231 after 24 to 48 hrs by two-fold dilution method; assay type: functional, organism-based
Candida albicans = test: Antifungal activity against Candida albicans ATCC 44859 after 24 to 48 hrs by two-fold dilution method; assay type: functional, organism-based
[7] = system: Staphylococcus epidermidis; test: Antibacterial activity against Staphylococcus epidermidis H 6966/08 clinical isolate after 24 to 48 hrs by broth microdilution method; assay type: functional, organism-based
Enterococcus sp. = test: Antibacterial activity against Enterococcus sp. J 14365/08 clinical isolate after 24 to 48 hrs by broth microdilution method; assay type: functional, organism-based
Escherichia coli = test: Antibacterial activity against Escherichia coli CCM 4517 after 24 to 48 hrs by broth microdilution method; assay type: functional, organism-based
[8] = system: Mycobacterium tuberculosis; test: Antimycobacterial activity against Mycobacterium tuberculosis H37Rv CNCTC My 331/88 in Middlebrook 7H9 broth after 5 days by AlamarBlue assay; assay type: functional; settings: H37Rv CNCTC My 331/88, 120 h

| Structure (SMILES) | Activity (Trichosporon asahii) | Activity (Candida tropicalis) | Activity (Pichia kudriavzevii) | Activity (Klebsiella pneumoniae [1]) | MIC [2] [mg/L] | MIC (Mycobacterium kansasii) [mg/L] | Activity (Lichtheimia corymbifera) | Activity [3] | Activity (Staphylococcus aureus [4]) | Activity (Nakaseomyces glabratus) | Activity (Pseudomonas aeruginosa) | Activity (Klebsiella pneumoniae [5]) | Activity (Staphylococcus aureus [6]) | Activity (Aspergillus fumigatus) | Activity (Candida albicans) | Activity [7] | Activity (Enterococcus sp.) | Activity (Escherichia coli) | MIC [8] |
| --- | --- | --- | --- | --- | --- | --- | --- | --- | --- | --- | --- | --- | --- | --- | --- | --- | --- | --- | --- |
| COCCCNc1cnc(C(=O)Nc2ccccc2)cn1 | inactive | inactive | inactive | inactive | > 100 | > 100 | inactive | inactive | inactive | inactive | inactive | inactive | inactive | inactive | inactive | inactive | inactive | inactive | 87.3 µM |
| O=C(Nc1ccccc1)c1cnc(NCCCO)cn1 | inactive | inactive | inactive | inactive | > 100 | > 100 | inactive | inactive | inactive | inactive | inactive | inactive | inactive | inactive | inactive | inactive | inactive | inactive | > 100 mg/L |
| Nc1cnc(C(=O)Nc2ccccc2Cl)cn1 | inactive | inactive | inactive | inactive | > 100 | > 100 | inactive | inactive | inactive | inactive | inactive | inactive | inactive | inactive | inactive | inactive | inactive | inactive | > 100 mg/L |
| O=C(Nc1ccccc1)c1cnc(NCCCCCO)cn1 | inactive | inactive | inactive | inactive | > 100 | > 100 | inactive | inactive | inactive | inactive | inactive | inactive | inactive | inactive | inactive | inactive | inactive | inactive | 41.6 µM |
| O=C(Nc1ccccc1)c1cnc(NCCO)cn1 | inactive | inactive | inactive | inactive | > 100 | > 100 | inactive | inactive | inactive | inactive | inactive | inactive | inactive | inactive | inactive | inactive | inactive | inactive | > 100 mg/L |
| O=C(Nc1ccccc1)c1cnc(NCCCCO)cn1 | inactive | inactive | inactive | inactive | > 100 | > 100 | inactive | inactive | inactive | inactive | inactive | inactive | inactive | inactive | inactive | inactive | inactive | inactive | 87.3 µM |
